The text below walks through data of patent US12227802B2, “Nucleotides with a 3′ AOM blocking group” (Illumina Cambridge Limited, priority 2018, dated 2025).

Holding throughout (format): physicochemical
Data set [1] is described as follows: Deblocking test of 3′ blocked T nucleotides in solution (Pd/THP for AOM, THP for azidomethyl; HPLC). The note with it: 0.1 mM nucleotide, Pd/THP=1/5, 1 mM THP, ethanolamine pH 9.8, room temperature. As to the method:
In this example, deblocking tests for 5′-mP 3′-AOM T and the standard 5′-mP 3′-O-azidomethyl T nucleotide were performed individually in a solution unique to each blocking group. Conditions were formulated to mimic Illumina's standard deblock reagent as closely as possible, and follow the same methodology. Concentrations of active deblock reagent, buffer, and nucleoside are kept the same across all tests, but the identity of each component was unique. In this way, the observed difference in rate between the individual deblocking chemistries cannot due to the differences in concentration of formulation.
Nucleotide: 5′-monophosphate 3′-O-azidomethyl T. Active Deblock reagent: tris(hydroxypropyl)phosphine (THP) (1M in 18 mΩ water). (Optional) Additive: Sodium ascorbate (0.1 mM in 18 mΩ water) final conc.=1 mM. Buffer: Ethanolamine pH 9.8 (2M in 18 mΩ water). Quenching reagent: H2O2.
Nucleotide: 5′-monophosphate […]. A stock solution of 3′-AOM T was diluted to 0.1 mM in a 100 mM ethanolamine buffer (pH 9.8), in a glass vial under nitrogen. A stock solution of sodium ascorbate additive was added to a final concentration of 0.1 mM and the solution stirred 5 minutes. To commence the assay, the deblock reagents (Pd/THP=⅕; sodium ascorbate; ethanolamine) were added, to a final concentration of 1 mM THP, to the stirring solution at room temperature. […]

Data set [2] can be described thus: 3′-O-thiocarbamate blocking groups stability testing in incorporation buffer at 65° C. (HPLC). The note with it: 9-day testing period (FIG. 6). As for the experimental part:
The stability tests for 5′-mP 3′-DMTC T nucleotide was performed side by side in an incorporation buffer solution with standard 5′-mP 3′-O-azidomethyl T nucleotide.
For both 5′-mP 3′-DMTC T and 5′-mP 3′-O-azidomethyl T, the final solution volume was 1 mL and the final concentrations of the corresponding nucleotides were both 0.1 mM. Other components of the aqueous buffer solution include ethanolamine (EA), ethanolamine HCl, NaCl (100 mM), and EDTA (2.5 mM). The buffer solution has the following concentration: 0.5 M EA Buffer, 0.5 M NaCl, 0.01 M EDTA.
200 μL of 10× Buffer solution was added to a 1.7 mL polypropylene snap lock microtube and diluted with the correct volume of 18 mΩ water. The corresponding nucleoside was then added, the vial was sealed and mixed via inversion, gentle stirring or pumping with a micropipette. A 40 μL aliquot was taken and analyzed by HPLC to act as a starting (or t=0) value. The vials are then placed in a pre-heated heating mantle set to 65° C., covered with a thick layer of aluminum foil and left to heat for one month. 40 μL aliquots was taken periodically (weck 1: once daily. Wecks 2-4: 1 every 2 days) and analyzed by HPLC to determine the percentage starting material and the percentage deblocked (3′-OH) nucleotide in the samples. HPLC analysis was performed by measuring the area of the stating nucleotide peak and the 3′OH peak. […]

Data set [3] can be described thus: 3′-O-thiocarbamate (DMTC) deblocking test in solution (HPLC). As for the experimental part:
In this example, deblocking or deblock tests for 5′-mP 3′-DMTC T and the standard 5′-mP 3′-O-azidomethyl T nucleotide were performed individually in a solution unique to each blocking group. Conditions were formulated to mimic Illumina's standard deblock reagent as closely as possible, and follow the same methodology. Concentrations of active deblock reagent, buffer, and nucleoside are kept the same across all tests, but the identity of each component was unique. In this way, the observed difference in rate between the individual deblocking chemistries cannot due to the differences in concentration of formulation.
Each reaction component was formulated individually as a concentrated stock in 18 mΩ water, stored appropriately, and aliquots combined in a specific order given below. Reaction was commenced by addition of the preformulated deblock reagent. […]
In a 3 mL glass vial was added the preformulated buffer solution followed by preformulated additive solution. […] A 40 μL aliquot was then taken, quenching reagent added and analyzed by HPLC as a reference (or t=0 min) peak. […] At specified time points, 40 μL aliquots were taken and quenched immediately with an appropriate quenching reagent, then analyzed by HPLC to determine the amount of deblocked nucleotide that has occurred at these specified time points. […]

Take `C=CCOCOC1C[C@H](n2cc(C)c(=O)[nH]c2=O)O[C@@H]1COP(=O)(O)O` (stereo partly shown) [AOM]: the “speed improvement in deblocking rate in solution compared to standard azidomethyl blocking group” value in data set [1] is 10 fold.
`Cc1cn([C@H]2CC(OC(=S)N(C)C)[C@@H](COP(=O)(O)O)O2)c(=O)[nH]c1=O` (stereo partly shown) [DMTC]: the “stability compared to nucleotide with standard 3′-O-azidomethyl group” value in data set [2] was “improved stability”. Further, the “deblocking with NaIO4” value in data set [3] (1 mM NaIO4, pH 6.75 phosphate buffer (FIG. 7)) is “not efficient”. In data set [3] (1 mM Oxone, pH 8.65 phosphate buffer (FIG. 7)), the “deblocking rate with Oxone compared to standard azidomethyl blocking group” value was “superior deblocking rate”.
